From patent US20260365670A1, “EGFR INHIBITORS AND USES THEREOF” (DIZAL (JIANGSU) PHARMACEUTICAL CO., LTD., priority 2022, published 2026)
Like-named read-outs stand apart in the source and are kept apart here.

How the values were obtained:
EGFR Exon19Del = biological target: T1, EGFR Exon19Del (Homo sapiens, UniProt P00533, DEL746-750); assay: Inhibition of EGFR Exon19Del biochemical enzymatic activity (HTRF); conditions: read-out: IC50 @Del19
T1 construct: purchased Carna Bio
Experimental: (§1) Biological Example 1: Inhibition of EGFR WT and Mutant Biochemical Enzymatic Activity
(§2) The inhibition potency of compounds against these enzymes was assessed using Homogenous Time Resolved Fluorescence approach (HTRF, CisBio. Cat No. 62TKOPEJ).
(§3) Inhibitory effects of the compounds were determined by measuring the enzymatic activity of EGFR enzyme phosphorylates 1 μM TK Substrate-biotin in the presence of 1 mM adenosine-5′-triphosphate (ATP) and varying concentrations of the test compound. The enzyme reaction buffer contains 5 mM MgCl2, 1 mM MnC12, 0.01% CHAPS, 1 mM dithiothreitol (DTT), 0.5% dimethylsulfoxide (DMSO), and 1× supplemented enzymatic buffer. The WT and mutant EGFR enzymes (SignalChem) were added to plates containing inhibitors, followed by activation of the kinase reaction by addition of ATP and peptide substrates. After incubation for 1 h at room temperature, the reaction was stopped by the addition of the detection reagent mix containing EDTA. The fluorescence was measured at 615 nm and 665 nm, respectively with excitation wavelength at 320 nm. The calculated signal ratio of 665 nm/615 nm is proportional to the kinase activity. The concentration of compound producing 50% inhibition of the respective kinase (IC50) was calculated using four-parameter logistic fit with XL-FIT.

[1] = test system: Ba/F3 cells expressing EGFR mutations; assay: Cell proliferation assay, Ba/F3 cells expressing EGFR mutations (CellTiter-Glo, 72 hours); type: cell-based
Experimental: (§4) Biological Example 2: Cell Proliferation Assays
(§5) Ba/F3 cells expressing EGFR mutations were seeded in 384-well plates at 5000 cells/well in RPMI1640 medium containing […]. PC-9 at 500 cells/well was seeded into 384-well plates in RPMI1640 medium with 10% FBS. After overnight incubation, the assay plates were dosed with compounds at a series of concentrations. Alongside dosing the assay plates, the day 0 plate was processed using CellTiter-Glo® Luminescent Cell Viability Assay (Promega) to measure the number of viable cells (G0). The assay plates were further incubated for 72 hours and the number of viable cells (G3) was measured. The percentage of proliferation was calculated as: […]=100×(G3 value of sample well−G0 value)/(G3 value of DMSO control−G0 value). The concentration of compound producing 50% proliferation inhibition (GI50) was further calculated in best-fit curves using XLFit software. N/A=not available.

[2] = biological target: T2, EGFR[T790M/C797S/d746-750] (Homo sapiens, UniProt P00533, C797S/DEL746-750/T790M); assay: Inhibition of EGFR[T790M/C797S/d746-750] biochemical enzymatic activity (HTRF)
T2 construct: purchased Carna Bio
Experimental: as §1, §2, §3

EGFR Exon19Del/T790M = biological target: T3, EGFR Exon19Del/T790M (Homo sapiens, UniProt P00533, DEL746-750/T790M); assay: Inhibition of EGFR Exon19Del/T790M biochemical enzymatic activity (HTRF); conditions: 1 mM ATP
T3 construct: purchased Carna Bio
T3 sequence (P00533 with tags, fused parts or gaps DEL746-750/T790M limits assumed): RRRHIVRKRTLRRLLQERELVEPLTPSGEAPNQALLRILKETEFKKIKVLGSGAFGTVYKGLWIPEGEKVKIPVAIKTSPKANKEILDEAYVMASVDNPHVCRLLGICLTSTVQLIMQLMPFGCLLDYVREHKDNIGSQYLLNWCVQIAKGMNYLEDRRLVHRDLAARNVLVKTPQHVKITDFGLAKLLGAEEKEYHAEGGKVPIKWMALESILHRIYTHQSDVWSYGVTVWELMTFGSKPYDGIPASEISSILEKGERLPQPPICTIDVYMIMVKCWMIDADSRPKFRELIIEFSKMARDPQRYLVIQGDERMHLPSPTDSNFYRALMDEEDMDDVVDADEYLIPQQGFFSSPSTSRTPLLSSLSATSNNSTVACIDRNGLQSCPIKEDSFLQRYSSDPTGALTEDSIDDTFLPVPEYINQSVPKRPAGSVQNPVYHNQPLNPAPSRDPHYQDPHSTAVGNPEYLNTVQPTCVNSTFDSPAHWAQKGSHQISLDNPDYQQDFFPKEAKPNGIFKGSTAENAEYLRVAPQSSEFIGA
Experimental: as §1, §2, §3

EGFR L858R/T790M = biological target: T4, EGFR L858R/T790M (Homo sapiens, UniProt P00533, L858R/T790M); assay: Inhibition of EGFR L858R/T790M biochemical enzymatic activity (HTRF); conditions: 1 mM ATP
T4 construct: purchased Carna Bio
T4 sequence (P00533 25-1210 T790M/L858R): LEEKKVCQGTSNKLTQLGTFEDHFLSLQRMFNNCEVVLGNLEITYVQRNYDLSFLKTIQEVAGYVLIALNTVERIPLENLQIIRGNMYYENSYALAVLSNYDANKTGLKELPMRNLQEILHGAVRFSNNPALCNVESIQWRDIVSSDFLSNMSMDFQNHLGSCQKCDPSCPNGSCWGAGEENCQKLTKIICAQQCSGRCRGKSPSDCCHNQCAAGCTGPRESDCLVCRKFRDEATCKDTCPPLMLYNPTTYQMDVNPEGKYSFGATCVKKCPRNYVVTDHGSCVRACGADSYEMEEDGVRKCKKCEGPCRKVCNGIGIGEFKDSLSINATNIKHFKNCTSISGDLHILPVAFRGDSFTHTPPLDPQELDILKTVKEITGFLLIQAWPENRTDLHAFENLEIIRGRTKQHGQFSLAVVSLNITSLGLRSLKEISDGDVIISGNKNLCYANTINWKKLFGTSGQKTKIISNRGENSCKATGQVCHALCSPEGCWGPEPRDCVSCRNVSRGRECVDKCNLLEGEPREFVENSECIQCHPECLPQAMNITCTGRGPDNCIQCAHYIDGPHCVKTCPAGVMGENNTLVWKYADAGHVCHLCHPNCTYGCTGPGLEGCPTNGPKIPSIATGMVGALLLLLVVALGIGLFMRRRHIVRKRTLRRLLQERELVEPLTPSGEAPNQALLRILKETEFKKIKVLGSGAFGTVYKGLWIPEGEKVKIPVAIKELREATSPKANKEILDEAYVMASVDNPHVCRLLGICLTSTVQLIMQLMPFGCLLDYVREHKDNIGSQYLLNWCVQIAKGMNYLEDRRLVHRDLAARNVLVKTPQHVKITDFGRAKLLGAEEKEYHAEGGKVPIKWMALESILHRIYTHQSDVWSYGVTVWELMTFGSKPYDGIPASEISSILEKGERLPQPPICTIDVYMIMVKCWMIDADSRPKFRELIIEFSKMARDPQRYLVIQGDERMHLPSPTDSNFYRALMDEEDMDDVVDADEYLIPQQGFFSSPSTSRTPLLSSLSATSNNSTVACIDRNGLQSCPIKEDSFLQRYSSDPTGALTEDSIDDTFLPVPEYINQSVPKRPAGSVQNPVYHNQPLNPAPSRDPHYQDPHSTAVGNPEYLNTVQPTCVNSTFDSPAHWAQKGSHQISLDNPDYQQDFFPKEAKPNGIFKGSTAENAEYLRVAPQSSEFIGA
Experimental: as §1, §2, §3

PC-9 = assay: Cell proliferation assay, PC-9 cells (CellTiter-Glo, 72 hours); type: cell-based; conditions: PC9 cells, read-out: GI50 PC9
Experimental: as §4, §5

EGFR[T790M/C797S/L858R] = biological target: T5, EGFR[T790M/C797S/L858R] (Homo sapiens, UniProt P00533, C797S/L858R/T790M); assay: Inhibition of EGFR[T790M/C797S/L858R] biochemical enzymatic activity (HTRF); conditions: 1 mM ATP
T5 construct: purchased Carna Bio
T5 sequence (P00533 25-1210 T790M/C797S/L858R): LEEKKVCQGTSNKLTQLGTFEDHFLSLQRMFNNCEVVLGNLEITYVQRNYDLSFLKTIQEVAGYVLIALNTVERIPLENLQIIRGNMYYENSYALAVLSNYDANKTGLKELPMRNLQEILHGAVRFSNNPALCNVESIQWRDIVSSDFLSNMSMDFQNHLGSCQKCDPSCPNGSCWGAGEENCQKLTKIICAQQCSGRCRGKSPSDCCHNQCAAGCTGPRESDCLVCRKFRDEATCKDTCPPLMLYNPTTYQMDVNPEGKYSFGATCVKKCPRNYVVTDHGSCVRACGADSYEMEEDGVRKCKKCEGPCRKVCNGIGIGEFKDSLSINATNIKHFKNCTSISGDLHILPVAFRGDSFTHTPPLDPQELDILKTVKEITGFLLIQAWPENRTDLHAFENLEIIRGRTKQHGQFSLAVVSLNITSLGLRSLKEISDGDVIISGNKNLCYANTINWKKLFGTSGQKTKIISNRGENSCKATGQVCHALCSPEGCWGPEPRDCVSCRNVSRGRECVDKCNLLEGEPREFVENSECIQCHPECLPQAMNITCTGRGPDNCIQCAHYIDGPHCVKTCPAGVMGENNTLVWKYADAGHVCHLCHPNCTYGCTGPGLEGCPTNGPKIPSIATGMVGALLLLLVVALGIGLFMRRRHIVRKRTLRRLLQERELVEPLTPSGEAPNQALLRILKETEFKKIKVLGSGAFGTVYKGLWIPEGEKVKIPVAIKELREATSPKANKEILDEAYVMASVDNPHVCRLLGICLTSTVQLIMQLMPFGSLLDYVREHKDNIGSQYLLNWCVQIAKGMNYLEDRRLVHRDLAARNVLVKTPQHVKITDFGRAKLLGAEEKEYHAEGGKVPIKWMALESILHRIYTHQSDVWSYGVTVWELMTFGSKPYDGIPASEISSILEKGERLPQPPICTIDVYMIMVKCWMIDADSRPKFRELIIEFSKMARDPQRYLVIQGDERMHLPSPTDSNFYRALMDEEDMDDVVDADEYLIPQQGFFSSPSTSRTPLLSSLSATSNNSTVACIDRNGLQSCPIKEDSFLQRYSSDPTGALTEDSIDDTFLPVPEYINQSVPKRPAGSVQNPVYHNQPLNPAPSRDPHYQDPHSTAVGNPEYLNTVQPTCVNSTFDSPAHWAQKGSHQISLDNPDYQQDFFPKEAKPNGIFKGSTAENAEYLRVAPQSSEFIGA
Experimental: as §1, §2, §3

EGFR (C797S L858R) = biological target: T6, EGFR (C797S L858R) (Homo sapiens, UniProt P00533, C797S/L858R); assay: Inhibition of EGFR (C797S L858R) biochemical enzymatic activity (HTRF); conditions: 1 mM ATP
T6 construct: purchased signalchem
T6 sequence (P00533 25-1210 C797S/L858R): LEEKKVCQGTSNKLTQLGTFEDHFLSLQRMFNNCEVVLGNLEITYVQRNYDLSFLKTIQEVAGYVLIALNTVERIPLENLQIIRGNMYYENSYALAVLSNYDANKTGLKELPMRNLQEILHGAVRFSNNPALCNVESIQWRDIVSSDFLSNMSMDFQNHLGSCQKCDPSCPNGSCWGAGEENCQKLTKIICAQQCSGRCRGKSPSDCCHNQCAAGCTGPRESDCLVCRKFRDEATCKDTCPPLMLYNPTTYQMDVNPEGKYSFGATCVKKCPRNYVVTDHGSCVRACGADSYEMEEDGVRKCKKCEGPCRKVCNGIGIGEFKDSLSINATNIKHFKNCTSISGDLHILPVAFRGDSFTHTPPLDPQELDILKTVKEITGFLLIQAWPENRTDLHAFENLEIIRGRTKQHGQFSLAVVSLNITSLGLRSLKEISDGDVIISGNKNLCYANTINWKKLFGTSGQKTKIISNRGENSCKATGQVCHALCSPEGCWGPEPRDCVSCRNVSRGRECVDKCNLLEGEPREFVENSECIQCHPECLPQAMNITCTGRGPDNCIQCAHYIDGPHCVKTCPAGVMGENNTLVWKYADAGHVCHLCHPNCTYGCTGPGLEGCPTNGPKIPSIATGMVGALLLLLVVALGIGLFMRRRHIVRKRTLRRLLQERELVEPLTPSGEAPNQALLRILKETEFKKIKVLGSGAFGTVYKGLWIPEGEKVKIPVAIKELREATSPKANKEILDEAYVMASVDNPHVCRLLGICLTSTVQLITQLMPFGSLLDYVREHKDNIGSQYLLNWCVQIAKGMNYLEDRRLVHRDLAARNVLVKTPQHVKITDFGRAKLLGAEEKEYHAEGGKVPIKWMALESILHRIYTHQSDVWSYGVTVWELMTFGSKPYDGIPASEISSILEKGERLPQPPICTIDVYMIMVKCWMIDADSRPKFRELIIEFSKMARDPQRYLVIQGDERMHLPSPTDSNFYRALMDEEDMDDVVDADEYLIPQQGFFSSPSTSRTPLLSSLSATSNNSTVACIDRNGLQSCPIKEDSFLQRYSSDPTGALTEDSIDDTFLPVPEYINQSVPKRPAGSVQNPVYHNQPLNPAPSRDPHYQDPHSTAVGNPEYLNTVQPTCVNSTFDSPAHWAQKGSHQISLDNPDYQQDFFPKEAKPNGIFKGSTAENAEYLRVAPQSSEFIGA
Experimental: as §1, §2, §3

EGFR (d746-750 C797S) = biological target: T7, EGFR (d746-750 C797S) (Homo sapiens, UniProt P00533, C797S/DEL746-750); assay: Inhibition of EGFR (d746-750 C797S) biochemical enzymatic activity (HTRF); conditions: 1 mM ATP
T7 construct: purchased signalchem
T7 sequence (P00533 with tags, fused parts or gaps DEL746-750/C797S limits assumed): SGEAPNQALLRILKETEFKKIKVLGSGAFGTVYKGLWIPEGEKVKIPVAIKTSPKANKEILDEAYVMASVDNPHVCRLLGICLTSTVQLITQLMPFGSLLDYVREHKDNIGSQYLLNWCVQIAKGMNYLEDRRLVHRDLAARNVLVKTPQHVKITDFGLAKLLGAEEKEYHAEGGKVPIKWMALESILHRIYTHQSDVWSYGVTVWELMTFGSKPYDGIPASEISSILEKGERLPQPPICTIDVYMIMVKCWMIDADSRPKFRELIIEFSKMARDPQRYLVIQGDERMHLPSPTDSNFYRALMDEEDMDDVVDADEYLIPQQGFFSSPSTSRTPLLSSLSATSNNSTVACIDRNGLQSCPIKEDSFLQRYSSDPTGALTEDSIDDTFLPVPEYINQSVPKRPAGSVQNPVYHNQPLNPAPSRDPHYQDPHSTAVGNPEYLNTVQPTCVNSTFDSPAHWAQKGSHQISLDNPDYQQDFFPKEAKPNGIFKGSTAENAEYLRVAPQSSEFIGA
Experimental: as §1, §2, §3

EGFR L858R = biological target: T8, EGFR L858R (Homo sapiens, UniProt P00533, L858R); assay: Inhibition of EGFR L858R biochemical enzymatic activity (HTRF); conditions: 1 mM ATP
T8 construct: purchased Carna Bio
Experimental: as §1, §2, §3

EGFR wild type = biological target: T9, EGFR wild type (Homo sapiens, UniProt P00533); assay: Inhibition of EGFR wild type biochemical enzymatic activity (HTRF); conditions: 1 mM ATP
T9 construct: purchased Carna Bio
Experimental: as §1, §2, §3

[3] = EGFR Exon19Del, 1 mM ATP, 1 h at room temperature
[4] = BaF3 cells, EGFR DEL19 - C797S, read-out: GI50 DEL19 - C797S/BaF3
[5] = BaF3 cells, EGFR DEL19 - T790-C797S, read-out: GI50 DEL19 - T790-C797S/BaF3
[6] = BaF3 cells, EGFR L858R - C797S, read-out: GI50 L858R - C797S/BaF3
[7] = BaF3 cells, EGFR L858R - T790-C797S, read-out: GI50 L858R - T790-C797S/BaF3
[8] = BaF3 cells, EGFR L858R - T790M, read-out: GI50 L858R - T790M/BaF3
[9] = BaF3 cells, EGFR L858R, read-out: GI50 L858R/BaF3
[10] = EGFR DEL19 - T790M, read-out: GI50 DEL19 - T790M
[11] = EGFR[T790M/C797S/d746-750], 1 mM ATP, 1 h at room temperature, read-out: IC50 @T790M - C797S - Del19
[12] = EGFR Exon19Del/T790M, 1 h at room temperature, read-out: IC50 @Del19-T790M
[13] = EGFR L858R/T790M, 1 h at room temperature, read-out: IC50 @L858R-T790M
[14] = EGFR[T790M/C797S/L858R], 1 h at room temperature, read-out: IC50 @T790M- C797S - L858R
[15] = EGFR (C797S L858R), 1 h at room temperature, read-out: IC50 @L858-C797S
[16] = EGFR (d746-750 C797S), 1 h at room temperature, read-out: IC50 @Del19-C797S
[17] = 1 h at room temperature, read-out: IC50 @L858R
[18] = EGFR wild type, 1 h at room temperature, read-out: IC50 @WT

Row | SMILES | IC50 (EGFR Exon19Del; [3]) [nM] | GI50 [1, 4] [nM] | GI50 [1, 5] [nM] | GI50 [1, 6] [nM] | GI50 [1, 7] [nM] | GI50 [1, 8] [nM] | GI50 [1, 9] [nM] | GI50 [1, 10] [nM] | IC50 [2, 11] [nM] | IC50 (EGFR Exon19Del/T790M; [12]) [nM] | IC50 (EGFR L858R/T790M; [13]) [nM] | GI50 (PC-9) [nM] | IC50 (EGFR[T790M/C797S/L858R]; [14]) [nM] | IC50 (EGFR (C797S L858R); [15]) [nM] | IC50 (EGFR (d746-750 C797S); [16]) [nM] | IC50 (EGFR L858R; [17]) [nM] | IC50 (EGFR wild type; [18]) [nM] | further results
1 | Cc1cc2cc(n1)-c1cnn(C)c1OCCN1CC3CCC(C3)(C1)n1c(nc3ccc(N4CC[C@@H](N(C)C)C4)cc31)NC2=O (single isomer, unassigned) [Example B42A] | > 5000 | 865 | 476 | 602 | 75 | 354 | 1770 | 468 | 1080 | 2480 | > 5000 | 1590 | > 5000 | > 5000 | > 5000 | > 5000 | > 5000 | –
2 | Cc1cc2cc(n1)-c1cnn(C)c1OCCN1CCOCC(C1)n1c(nc3ccccc31)NC2=O (centres unmarked) [Example B7, 15,21-dimethyl-23,29-dioxa-2,9,11,16,20,21,26-heptaazahexacyclo[24.4.1.1^{13,17}.0^{2,10}.0^{3,8}.0^{18,22}]dotriaconta-3,5,7,9,13(32),14,16,18(22),19-nonaen-12-one] | 1420 | – | 296 | – | 300 | 723 | – | 420 | 44 | 109 | 1960 | – | 1090 | > 5000 | 627 | – | > 500 | GI50 ([1]; Mus musculus, BaF3, 72 h, BaF3 cells, EGFR DEL19 - C797S, read-out: GI50 DEL19 - C797S/BaF3): 346 nM; GI50 ([1]; Mus musculus, BaF3, 72 h, BaF3 cells, EGFR L858R - C797S, read-out: GI50 L858R - C797S/BaF3): 334 nM; GI50 ([1]; Mus musculus, BaF3, 72 h, BaF3 cells, EGFR L858R, read-out: GI50 L858R/BaF3): 1900 nM; GI50 (PC-9; Homo sapiens, PC-9, 72 h): 667 nM
3 | CCN1CCN(c2ccc3nc4n(c3c2)C23CCC(CN(CCOc5c(cnn5C)-c5cc(cc(C)n5)C(=O)N4)C2)C3)CC1 (single isomer, unassigned) [Example B56A] | 3180 | 82 | 145 | 417 | 58 | 80 | 1030 | 230 | 360 | 1320 | > 5000 | 443 | > 5000 | > 5000 | 2390 | > 5000 | > 5000 | –
4 | Cc1cc2cc(n1)-c1cnn(C)c1OCCN1CC3CCC(CC3)(C1)n1c(nc3ccc(N4CCC5(CCN(C)CC5)C4)cc31)NC2=O [Example B38] | 38 | 24 | – | – | 19 | 38 | 81 | 10 | 8.2 | 21 | 37 | – | 14 | 300 | 26 | 560 | > 5000 | –
5 | Cc1cc2cc(n1)-c1cnn(C)c1OCCN1CC3CCC(C3)(C1)n1c(nc3ccc(N4CCC(N5CCOCC5)C4)cc31)NC2=O (single isomer, unassigned) [Example B44A] | > 5000 | 312 | 321 | 624 | 52 | 326 | 3000 | 368 | 4640 | > 5000 | > 5000 | 1400 | > 5000 | > 5000 | > 5000 | > 5000 | – | –
6 | CN(C)CCC1CN(c2ccc3nc4n(c3c2)C23CCC(CN(CCOc5c(cnn5C)-c5cc(cn(C)c5=O)C(=O)N4)C2)C3)C1 (single isomer, unassigned) [Example A95A] | – | – | – | – | – | – | – | – | – | – | – | – | – | – | – | – | – | IC50 (EGFR Exon19Del; EGFR Del19, 1 mM ATP, 1 h, room temperature): 864 nM; IC50 ([2]; EGFR T790M-C797S-Del19, 1 mM ATP, 1 h, room temperature, read-out: IC50 (nM) @T790M - C797S - Del19): > 5000 nM; IC50 (EGFR Exon19Del/T790M; EGFR Del19-T790M, 1 h, room temperature, read-out: IC50 (nM) @Del19-T790M): > 5000 nM; IC50 (EGFR L858R/T790M; EGFR L858R-T790M, 1 h, room temperature, read-out: IC50 (nM) @L858R-T790M): > 5000 nM; IC50 (EGFR[T790M/C797S/L858R]; EGFR T790M-C797S-L858R, 1 h, room temperature, read-out: IC50 (nM) @T790M- C797S - L858R): > 5000 nM; IC50 (EGFR (C797S L858R); EGFR L858-C797S, 1 h, room temperature, read-out: IC50 (nM) @L858-C797S): > 5000 nM; IC50 (EGFR (d746-750 C797S); EGFR Del19-C797S, 1 h, room temperature, read-out: IC50 (nM) @Del19-C797S): 899 nM; IC50 (EGFR L858R; 1 h, room temperature, read-out: IC50 (nM) @L858R): 4640 nM; IC50 (EGFR wild type; EGFR WT, 1 h, room temperature, read-out: IC50 (nM) @WT): > 5000 nM
